Test results taken from patent US6392055B1, “Synthesis and biological evaluation of analogs of the antimitotic marine natural product curacin A” (The University of Pittsburgh, priority 2000, dated 2002).
Read-outs that look alike come from different tables or passages of the source.

What was measured:
[1] = tested on: PC-3 cells; assay: Growth inhibition of prostate carcinoma cells (MTS); type: cell-based, human
[2] = tested on: 2008 cells; assay: Growth inhibition of ovarian carcinoma cells (MTS); type: cell-based, human
[3] = tested on: isolated bovine brain tubulin; assay: Inhibition of GTP/glutamate-induced tubulin polymerization (turbidimetric, 30° C.); type: biochemical; conditions: for IC50: read-out: 50% Tubulin Polymerization Inhibition Concentration (TPI) IC50, 30° C., 10 μM tubulin; for Percent Tubulin Polymerization Inhibition (TPI), 5 μM / % TPI 5 μM: 5 μM compound
[4] = molecular target: tubulin (colchicine site); assay: Inhibition of [3H]colchicine binding to tubulin; design: species or system bovine; conditions: for IC50: 5 μM [3H]colchicine, 1 μM tubulin; for Percent Colchicine Binding Inhibition (CBI), 1 μM: 1 μM compound; for Percent Colchicine Binding Inhibition (CBI), 5 μM / % CBI 5 μM, (30° C.) / % CBI 5 μM, 37° C.: 5 μM compound; for Percent Colchicine Binding Inhibition (CBI), 50 μM / % CBI 50 μM, (30° C.) / % CBI 50 μM, 37° C.: 50 μM compound; for % CBI 5 μM, (30° C.) / % CBI 50 μM, (30° C.): 30° C. (values in parentheses)
Protocol: Assays to determine whether 15mix-17mix inhibited binding of [^3H]colchicine to tubulin at both 30° C. and 37° C. were performed. This was accomplished using methods described previously. Kang, G.-J.; Getahun, Z.; Muzaffar, A.; Brossi, A.; Hamel, E. J. Biol. Chem. 1990, 265, 10255; Verdier-Pinard, P.; Lai, J.-Y.; Yoo, H.-D.; Yu, J.; Marquez, B.; Nagle, D. G.; Nambu, M.; White, J. D.; Falck, J. R.; Gerwick, W. H.; Day, B. W.; Hamel, E. Mol. Pharmacol. 1998, 53, 62. Briefly, 5 μM [^3H]colchicine (2.3 TBq/mmol), drug (1, 5, 10, 50, or 250 μM), or vehicle (DMSO, 5% v/v) were incubated at 30° C. for 15 minutes or at 37° C. for 10 minutes with 1 μM tubulin in the presence of 1 M monosodium glutamate, 0.1 M glucose-1-phosphate, 1 mM MgCl2, 1 mM GTP, and 0.5 mg/mL bovine serum albumin. The solutions were filtered through two stacks of DEAE-cellulose filters and the radioactivity in the filtrate was determined by scintillation spectrometry. Each series of determinations included positive controls of 1, 5, and/or 50 μM curacin A.

[5] = tested on: MDA-MB231 cells; assay: Growth inhibition of breast carcinoma cells (MTS); type: cell-based, human
[6] = Homo sapiens, PC-3, 48 h, read-out: GI50 PC-3 (48 h)
[7] = Homo sapiens, Ovarian carcinoma cell, 48 h, read-out: GI50 2008 (48 h)
[8] = incubation at 30° C. for 15 minutes, read-out: 50% Colchicine Binding Inhibitory Concentration (CBI), 30° C.
[9] = incubation at 37° C. for 10 minutes, read-out: 50% Colchicine Binding Inhibitory Concentration (CBI), 37° C.
[10] = Homo sapiens, MDA-MB-231, 48 h, read-out: GI50 MDA-MB231 (48 h)
[11] = 96 h, Table II prints no unit, read-out: GI50 PC3 96 h
[12] = read-out: GI50 PC3 48 h, 48 h, Table II prints no unit
[13] = 96 h, Table II prints no unit, read-out: GI50 2008 96 h
[14] = read-out: GI50 2008 48 h, 48 h, Table II prints no unit
[15] = 96 h, Table II prints no unit, read-out: GI50 MDA 96 h
[16] = read-out: GI50 MDA 48 h, 48 h, Table II prints no unit
[17] = 96 h, read-out: GI50 PC3 (prostate) 96 h
[18] = read-out: GI50 PC3 (prostate) 48 h, 48 h
[19] = 96 h, read-out: GI50 2008 (ovarian) 96 h
[20] = read-out: GI50 2008 (ovarian) 48 h, 48 h
[21] = 96 h, read-out: GI50 MDA-MB231 (breast) 96 h
[22] = read-out: GI50 MDA-MB231 (breast) 48 h, 48 h

Row | GI50 [1, 11] | GI50 [1, 12] | GI50 [2, 13] | GI50 [2, 14] | Percent Colchicine Binding Inhibition (CBI), 1 μM [4] | Percent Colchicine Binding Inhibition (CBI), 5 μM [4] | Percent Colchicine Binding Inhibition (CBI), 50 μM [4] | GI50 [5, 15] | GI50 [5, 16] | SMILES | Percent Tubulin Polymerization Inhibition (TPI), 5 μM [3] | also measured
1 | – | – | – | – | – | – | – | – | – | COc1cc(C=CCCC=CC=C(C)CCC(O)c2ccco2)cc(OC)c1OC (stereo not drawn) [Compound 17a, (4E,1E,10Z)-11-(3,4,5-Trimethoxyphenyl)-4-methyl-1-furan-2-ylundeca-4,6,10-trien-1-ol] | – | GI50 [1, 6]: 8 ± 4 µM; GI50 [2, 7]: 2.7 ± 1 µM; IC50 [3]: 0.9 µM; IC50 [4, 8]: 32 ± 4 µM; IC50 [4, 9]: 9 ± 6 µM; GI50 [5, 10]: 0.69 ± 0.1 µM
2 | – | – | – | – | – | – | – | – | – | COc1ccccc1C(O)CCC(C)=CC=CCCC=Cc1cc(OC)c(OC)c(OC)c1 (stereo not drawn) [Compound 17d, (4E,6E,10Z)-11-(3,4,5-Trimethoxyphenyl)-4-methyl-1-(2-methoxy-phenyl)-2-ylundeca-4,6,10-trien-1-ol] | – | GI50 [1, 6]: 0.62 ± 0.2 µM; GI50 [2, 7]: 0.33 ± 0.02 µM; IC50 [3]: 1.2 µM; IC50 [4, 8]: 9 ± 5 µM; IC50 [4, 9]: 9 ± 4 µM; GI50 [5, 10]: 0.34 ± 0.03 µM
3 | – | – | – | – | – | – | – | – | – | COc1ccc(OC)c(C(O)CCC(C)=CC=CCCC=Cc2cc(OC)c(OC)c(OC)c2)c1 (stereo not drawn) [Compound 17f, (4E,6E,10Z)-11-(3,4,5-Trimethoxyphenyl)-4-methyl-1-(2,5-dimethoxy-phenyl)-2-ylundeca-4,6,10-trien-1-ol] | – | GI50 [1, 6]: > 50 µM; GI50 [2, 7]: 22 ± 5 µM; IC50 [3]: > 50 µM; IC50 [4, 8]: > 50 µM; IC50 [4, 9]: > 50 µM; GI50 [5, 10]: 9.7 ± 1 µM
4 | > 50 µM | > 50 µM | 19.1 ± 3.1 µM | 20.2 ± 2 µM | −4.6 ± 8.5% | −2.2 ± 8.2% | 13.2 ± 12.7% | 3.26 ± 6.13 µM | 26.8 ± 0.9 µM | COc1ccc(/C=C\CC/C=C/C=C(\C)CCC(O)c2ccco2)c(OC)c1 (stereo not drawn) [Compound 19AR1] | 81.7% | –
5 | 37.3 ± 6.5 µM | > 50 µM | 25.9 ± 2.1 µM | 23.8 ± 1.1 µM | −0.7 ± 7.5% | −2.7 ± 6.5% | −31.7 ± 7.8 % | 7.18 ± 4.67 µM | 24 ± 1.2 µM | COc1ccc(/C=C\CC/C=C/C=C(\C)CCC(O)c2cccs2)c(OC)c1 (stereo not drawn) [Compound 19AR2] | 51.8% | –
6 | 49.1 ± 8.9 µM | > 50 µM | 17.7 ± 2.7 µM | 12.2 ± 2.7 µM | 0.7 ± 16.2% | −50.0 ± 12.7 % | −29.0 ± 9.2 % | 6.43 ± 7.42 µM | 42.1 ± 1.4 µM | COc1ccc(/C=C\CC/C=C/C=C(\C)CCC(O)c2cc3ccccc3o2)c(OC)c1 (stereo not drawn) [Compound 19AR3] | 60.4% | –
7 | > 50 µM | > 50 µM | 26.9 ± 3 µM | 29.8 ± 1.4 µM | 1.4 ± 18.5% | −41.0 ± 17.8 % | −26.4 ± 14.7 % | 18.6 ± 3 µM | > 50 µM | COc1ccc(/C=C\CC/C=C/C=C(\C)CCC(O)c2cc3ccccc3s2)c(OC)c1 (stereo not drawn) [Compound 19AR4] | 60.5% | –
8 | > 50 µM | > 50 µM | 24.2 ± 3.9 µM | 30.8 ± 8.7 µM | −3.4 ± 3.2% | −17.4 ± 7.9 % | −26.1 ± 11.5 % | 15.3 ± 9.8 µM | > 50 µM | COc1ccc(/C=C\CC/C=C/C=C(\C)CCC(O)c2ccccc2OC)c(OC)c1 (stereo not drawn) [Compound 19AR5] | 34.2% | –
9 | > 50 µM | > 50 µM | 32.9 ± 3.7 µM | 35.2 ± 2.4 µM | 1.7 ± 13.9% | −6.8 ± 13.1% | −22.8 ± 8.9 % | 18.3 ± 13.6 µM | 39.3 ± 11.3 µM | COc1ccc(/C=C\CC/C=C/C=C(\C)CCC(O)c2cc(OC)ccc2OC)c(OC)c1 (stereo not drawn) [Compound 19AR6] | 31.2% | –
10 | 7.73 ± 1.22 µM | 7.99 ± 3.52 µM | 2.53 ± 0.64 µM | 2.72 ± 0.96 µM | – | 30.3 ± 7.5 % | 59.7 ± 1.6 % | 0.79 ± 0.167 µM | 0.288 ± 0.166 µM | COc1cc(/C=C\CC/C=C/C=C(\C)CCC(O)c2ccco2)cc(OC)c1OC (stereo not drawn) [Compound 19CR1] | 94.4% | –
11 | 1.22 ± 0.22 µM | 0.875 ± 1.02 µM | 0.235 ± 0.021 µM | 0.38 ± 0.002 µM | – | 30.2 ± 7.3 % | 71.6 ± 2.8 % | 1.28 ± 0.12 µM | 0.083 ± 0.125 µM | COc1cc(/C=C\CC/C=C/C=C(\C)CCC(O)c2cccs2)cc(OC)c1OC (stereo not drawn) [Compound 19CR2] | >100% | –
12 | 1.02 ± 0.38 µM | 0.366 ± 0.157 µM | 0.279 ± 0.03 µM | 0.311 ± 0.063 µM | – | 9.9 ± 3.0% | 59.0 ± 7.5 % | 0.214 ± 0.051 µM | 0.151 ± 0.051 µM | COc1cc(/C=C\CC/C=C/C=C(\C)CCC(O)c2cc3ccccc3o2)cc(OC)c1OC (stereo not drawn) [Compound 19CR3] | >100% | –
13 | 0.634 ± 0.397 µM | 0.933 ± 1.25 µM | 0.268 ± 0.046 µM | 0.314 ± 0.025 µM | – | 5.0 ± 7.4% | 73.0 ± 2.4 % | 0.221 ± 0.033 µM | 0.243 ± 0.046 µM | COc1cc(/C=C\CC/C=C/C=C(\C)CCC(O)c2cc3ccccc3s2)cc(OC)c1OC (stereo not drawn) [Compound 19CR4] | >100% | –
14 | 1.12 ± 0.04 µM | 0.596 ± 1.25 µM | 0.199 ± 0.036 µM | 0.204 ± 0.112 µM | – | 12.5 ± 8.1% | 68.7 ± 1.1 % | 0.204 ± 0.046 µM | 0.086 ± 0.146 µM | COc1ccccc1C(O)CC/C(C)=C/C=C/CC/C=C\c1cc(OC)c(OC)c(OC)c1 (stereo not drawn) [Compound 19CR5] | 74.6% | –
15 | – | – | – | – | – | – | – | – | – | C=CC[C@@H](CC[C@@]1(C)C[C@H]1[C@H]1C[C@@H]1CC/C=C\[C@@H]1CSC([C@@H]2C[C@@H]2C)=N1)OC [JR DCCA] | – | GI50 [1, 17]: > 50 µM; GI50 [1, 18]: > 50 µM; GI50 [2, 19]: > 50 µM; GI50 [2, 20]: > 50 µM; % TPI 5 μM [3]: 0%; % CBI 5 μM, (30° C.) [4]: (9 ± 5) %; % CBI 5 μM, 37° C. [4]: −39 ± 7%; % CBI 50 μM, (30° C.) [4]: (−12 ± 9) %; % CBI 50 μM, 37° C. [4]: −62 ± 5%; GI50 [5, 21]: > 50 µM; GI50 [5, 22]: > 50 µM
16 | – | – | – | – | – | – | – | – | – | C=CC[C@@H](CC/C(C)=C/C=C/CC/C=C\[C@@H]1COC(C(C)(C)C)=N1)OC [JRC1] | – | GI50 [1, 17]: 8.8 ± 0.8 µM; GI50 [1, 18]: 6.2 ± 1.3 µM; GI50 [2, 19]: 3.7 ± 1.5 µM; GI50 [2, 20]: 0.45 ± 0.5 µM; % TPI 5 μM [3]: 0%; % CBI 5 μM, (30° C.) [4]: (14 ± 5) %; % CBI 5 μM, 37° C. [4]: 0 ± 7%; % CBI 50 μM, (30° C.) [4]: (80 ± 1) %; % CBI 50 μM, 37° C. [4]: 87 ± 1%; GI50 [5, 21]: 4.1 ± 1.1 µM; GI50 [5, 22]: 1.8 ± 0.3 µM
17 | – | – | – | – | – | – | – | – | – | C=CC[C@@H](CC/C(C)=C/C=C/CC/C=C\c1coc(C(C)(C)C)n1)OC [JRC2] | – | GI50 [1, 17]: > 50 µM; GI50 [1, 18]: > 50 µM; GI50 [2, 19]: > 50 µM; GI50 [2, 20]: > 50 µM; % TPI 5 μM [3]: 51%; % CBI 5 μM, (30° C.) [4]: (7 ± 5) %; % CBI 5 μM, 37° C. [4]: 0 ± 17%; % CBI 50 μM, (30° C.) [4]: (7 ± 6) %; % CBI 50 μM, 37° C. [4]: −52 ± 14%; GI50 [5, 21]: > 50 µM; GI50 [5, 22]: 36 ± 22 µM
